Key:
[1] = tested on: DMT1-deficient Caco-2 cells; assay: shDMT1-Caco2 55Fe transport assay; assay type: cell-based; conditions: Caco-2
Excerpt: Assay 2: shDMT1-Caco2 ^55Fe Transport Assay to Assess Ligand Ability in Transporting Fe (III)
Cells: DMT1-deficient Caco-2 cells (alias: “shDMT1,” or “4A” cells) were from Grillo et al. Science, 2017, and were cryopreserved in liquid nitrogen prior to use.
Reagents and supplies: ^55FeCl3 was obtained from PerkinElmer (Boston, MA). Iron(III) chloride (FeCl3) hexahydrate was obtained from Sigma. Dulbecco's Modified Eagle Medium (DMEM), fetal bovine serum (FBS), L-glutamine, MEM nonessential amino acids, penicillin-streptomycin, G418, formic acid, methanol, high-purity water, ammonium formate, dimethyl sulfoxide (DMSO) were purchased from Fisher Scientific. Propranolol, atenolol and carbutamide were obtained from Sigma-Aldrich Chemical Company (St Louis, MO). Scintillation cocktail was obtained from Research Product International Co. (Mount Prospect, IL). Stericup filter system (PES membrane, 0.22 um pore size) was purchased from Fisher Scientific. Coming item #3378 24-well transwell insert plates. Test articles: known compounds hinokitiol and deferiprone were purchased from Sigma. They are tested side by side with the small molecule ligands disclosed in this application. DMSO stocks (10 mM, which is 1,000× of the 10 μM dose level) of hinokitiol or test articles were prepared. A stock solution of 25 mM deferiprone in DMSO was prepared. The DMSO stock solutions were stored at −20° C. or below when not in use.
The growth medium was prepared according to the following table
Apical media (serum free DMEM, 10 mM MES, pH 6.5) was prepared. Apical master mix media was prepared fresh with the addition of 200 nM ^55Fe before each experiment. For the negative control propranolol and atenolol wells, 200 nM of non-radioactive iron was used.
The basolateral media was serum-free DMEM, 10 mM HEPES, 2% bovine serum albumin (BSA), pH 7.4.
For each experiment, cells were seeded into the 24-well transwell plates (0.5 mL of 50,000 cells/mL) with growth media. The basolateral companion plate was loaded with 1 mL of growth media. After 12-24 hr, both the apical and basolateral chamber were replaced with growth media. The apical media was changed 3× per week for 21-28 days, including a media change exactly 48 hr before the assay date.
On the assay day, the TEER values were measured and the average TEER values was obtained. Individual wells with TEER vaule >35% lower than the average of all wells were excluded. For the qualified wells, the apical layer (twice) and basolaterial (once) chambers were washed with PBS. The basolateral companion plate was then filled with 1 mL of basolateral media. Via addition down the side-wall of the apical well, 300 μL per well of the apical assay master mix, with the indicated dose level of test article, was added. Each dose was tested in triplicate. The plates were incubated (5% CO2 and 90% humidity at 37° C.) for the indicated timepoints. At each indicated timepoint, the basolateral supernatant was gently mixed via pipetting, and 200 μL of the basolateral supernatant was transferred to scintillation vials. To each scintillation counting vial, 5 mL of scintillation cocktail fluid was added. For each scintillation vial, the radioactivity (CPM) was determined with liquid scintillation counter LS6500. The counting time per vial was 5 min.
All raw CPM values are divided by the average value of blank DMSO solution to give a fold of change above the DMSO value. The mean and standard deviation of each compound at each concentration level and at each time point measured was calculated to give the fold change (fc) value.
For rank order compounds, the fc value of a ligand at 4 h time point is further divided by the fold change (fc) value of hinokitiol (a positive control compound) at an equimolar concentration to arrive at the FC (normalized fold of change) value. Data reported in Tables 1 and 2 is 4 hr time point FC=fc-ligand @ 3 uM/fc-hino @ 3 uM, and FC hino=1.

[2] = Ligand facilitated Fe(III) efflux from liposomes; conditions: 10 uM ligand concentration; for Liposome Fe transport kefflux at 10 10 μM: Table 1; for Liposome Fe transport Kefflux at 10 μM: Table 2
Protocol: Assay 1: Ligand Facilitated Fe(III) Efflux from Liposomes Preparation of POPC (1-palmitoyl-2-oleoyl-sn-glycero-3-phosphocholine): Cholesterol Liposomes:
A 1M buffer solution of MES and Tris was prepared by dissolving 121.14 grams of Tris base and 213.25 grams of MES hydrate in 500 mL of MilliQ water and adjusted to pH7.0 using an […] HCl solution before bringing the total volume of the solution to 1 L. A 500 mM solution of FeCl3 was prepared by dissolving 0.811 grams of anhydrous FeCl3 in 10 mL of a 0.1M H2SO4 aqueous solution. Inside buffer is prepared in a 50 mL falcon tube, which was added with 25 mL of MilliQ water, 1.61 g of sodium citrate, 1.5 mL of the above FeCl3 solution, and 2.5 mL of the 1M MES/Tris HCl buffer (pH=7.0), and finally additional MilliQ H2O to bring to a 50 mL final volume.
Lipid solution is prepared by dissolving 206.9 mg of POPC (1-palmitoyl-2-oleoyl-sn-glycero-3-phosphocholine) and 8.6 mg of cholesterol in 10 mL of ethanol.
The lipids solution and the inside buffer solution are independently loaded into 10 mL luer lock syringes for loading into a virgin cartridge on a Precision Nanosystems NanoAssembler to prepare unilamaller liposomes with the following parameters: 7.5 mL total volume, 1.5:1 mixing ratio of inside buffer:lipids solution, 8 mL/min flow rate, ambient temperature, 0.35 mL start waste, and 0.05 mL of end waste. 7.5 mL of liposomes is harvested for purification on a 6-inch long, 1-inch diameter Sephadex G-50 column wetted in 600 mM sodium ascorbate and 50 mM MES/Tris HCl pH 7.0 buffer. This buffer also serves as the column running buffer. The crude liposome solution is carefully loaded with minimal volume of running buffer above the top of the Sphadex, allowed to enter the matrix, and the column is run with the continued addition of running buffer. The eluting liposomes, observed as a milky and turbid solution, are collected until free iron begins to elute (observed as a deep purple color) and the fractions are pooled for phosphorus quantitation.
Phosphorus content of eluted liposomes was determined by the process outlined below. 10 uL of liposome elution and a running buffer blank are added to a 5 mL glass vial containing 450 uL of a 8.9 M aqueous H2SO4 solution, the mixture is heated to 225° C. for 25 minutes in an aluminum heat block to hydrolyze POPC and cooled for 5 minutes. 200 ul of a 30% hydrogen peroxide aqueous solution is added to each vial and heated to 225° C. for 25 minutes. After cooling, the phosphorus content was determined using an Abcam Phosphate Assay kit, with buffer subtracted phosphorus levels determined against a standard curve of phosphate included in the kit. Liposomes were diluted to 1 mM phosphate in Running Buffer for use in assays after accounting for dilutions made during phospholipid digestion.
Determination of the rate at which a small molecule ligand liberates (transport) Ferric iron from liposomes is performed in clear bottom black 384-well plates on a Spectramax i3x set to read the absorbance at 562 nm in the kinetic mode every 60 seconds for 120 minutes. 1 uL of serially diluted DMSO stock solution of a small molecule ligand is added to wells in triplicate to give the final concentrations of 40, 20, 10, 5, 2.5, and 1.25 uM of the ligand at 80 μL final volume, followed by addition of 1 μL of 100 mM Ferrozine in water to give a final concentration of 1 mM ferrozine. 78 uL of liposomes diluted to 1 mM phosphorus in running buffer is added to wells as quickly as possible (using a digital repeater mulchannel pipette) with the kinetic read initiated as rapidly as possible after addition of liposomes to all wells. Typically, eight compounds at six concentrations are tested in triplicate simultaneously.
Upon completion of kinetic read, the data for individual reads is fitted to a single phase association regression with the equation Y=(Y0−YMax)^(−kX)+YMax, with Y being the 562 absorbance value and X being time in minutes. […]

SMILES | Caco2 shDMT1 transport FC @ 3 μM, 4h [1] | Liposome Fe transport kefflux at 10 10 μM [2] | Liposome Fe transport Kefflux at 10 μM [2]
O=c1cccc(-c2cncc(Cl)c2)cc1O [Ex.17, 4-(5-chloropyridin-3-yl)-2-hydroxycyclohepta-2,4,6-trien-1-one] | 0.01-0.5 | 5-7.5 | –
O=c1ccc(-c2ccncn2)ccc1O [Ex.49, 2-hydroxy-5-(pyrimidin-4-yl)cyclohepta-2,4,6-trien-1-one] | 0.01-0.5 | 0.1-5 | –
CC(C)c1ccc(O)c(=O)c(-c2cncc(F)c2)c1 [Ex.61, 2-(5-fluoropyridin-3-yl)-7-hydroxy-4-isopropylcyclohepta-2,4,6-trien-1-one] | 0.01-0.5 | 7.5-10 | –
O=c1ccccc(-c2cncc(F)c2)c1O [Ex.24, 2-(5-fluoropyridin-3-yl)-7-hydroxycyclohepta-2,4,6-trien-1-one] | 0.01-0.5 | 7.5-10 | –
Cc1cc(-c2cccc(=O)c(O)c2)cnc1N [Ex.56, 4-(6-amino-5-methylpyridin-3-yl)-2-hydroxycyclohepta-2,4,6-trien-1-one] | 0.01-0.5 | 0.1-5 | –
Cc1ncc(F)cc1-c1cccc(=O)c(O)c1 [Ex.58, 4-(5-fluoro-2-methylpyridin-3-yl)-2-hydroxycyclohepta-2,4,6-trien-1-one] | 0.01-0.5 | 0.1-5 | –
O=c1ccccc(-c2cncs2)c1O [Ex.75, 2-hydroxy-3-(thiazol-5-yl)cyclohepta-2,4,6-trien-1-one] | 0.5-1 | – | 0.1-5
O=c1ccc(-c2cncc(F)c2)ccc1O [Ex.15, 5-(5-fluoropyridin-3-yl)-2-hydroxycyclohepta-2,4,6-trien-1-one] | 0.01-0.5 | 5-7.5 | –
COc1nccc(-c2ccc(O)c(=O)cc2)n1.O=C(O)C(F)(F)F [Ex.38, 2-hydroxy-5-(2-methoxypyrimidin-4-yl)cyclohepta-2,4,6-trien-1-one] | 0.01-0.5 | 0.1-5 | –
O=c1cccc(-c2cnc(N3CCOCC3)nc2)cc1O [Ex.42, 2-hydroxy-4-(2-morpholinopyrimidin-5-yl)cyclohepta-2,4,6-trien-1-one] | 0.01-0.5 | 7.5-10 | –
Cc1cnccc1-c1cccc(=O)c(O)c1 [Ex.9, 2-hydroxy-4-(3-methylpyridin-4-yl)cyclohepta-2,4,6-trien-1-one] | 0.01-0.5 | 0.1-5 | –
COc1cncc(-c2cccc(=O)c(O)c2)c1 [Ex.10, 2-hydroxy-4-(5-methoxypyridin-3-yl)cyclohepta-2,4,6-trien-1-one] | 0.01-0.5 | 0.1-5 | –
COc1cc(-c2cccc(=O)c(O)c2)cnc1OC [Ex.12, 4-(5,6-dimethoxypyridin-3-yl)-2-hydroxycyclohepta-2,4,6-trien-1-one] | 0.5-1 | 7.5-10 | –
O=C(O)C(F)(F)F.O=c1cccc(-c2ccncn2)cc1O [Ex.48, 2-hydroxy-4-(pyrimidin-4-yl)cyclohepta-2,4,6-trien-1-one] | 0.01-0.5 | 0.1-5 | –
Cc1c(F)cncc1-c1cccc(=O)c(O)c1 [Ex.46, 4-(5-fluoro-4-methylpyridin-3-yl)-2-hydroxycyclohepta-2,4,6-trien-1-one] | 0.01-0.5 | 5-7.5 | –
COc1ccc(-c2cccc(=O)c(O)c2)cn1 [Ex.19, 2-hydroxy-4-(6-methoxypyridin-3-yl)cyclohepta-2,4,6-trien-1-one] | 0.01-0.5 | 0.1-5 | –
Cc1ncc(-c2ccc(O)c(=O)cc2)cn1 [Ex.33, 2-hydroxy-5-(2-methylpyrimidin-5-yl)cyclohepta-2,4,6-trien-1-one] | 0.01-0.5 | 0.1-5 | –
O=c1cccc(-c2cnccc2F)cc1O [Ex.52, 4-(4-fluoropyridin-3-yl)-2-hydroxycyclohepta-2,4,6-trien-1-one] | 0.01-0.5 | 0.1-5 | –
O=c1ccccc(-c2cc(F)ccn2)c1O [Ex.70, 3-(4-fluoropyridin-2-yl)-2-hydroxycyclohepta-2,4,6-trien-1-one] | 0.01-0.5 | – | 10-25

— patent US20240018105A1, “TROPOLONE DERIVATIVES AND TAUTOMERS THEREOF FOR IRON REGULATION IN ANIMALS” (Kinesid Therapeutics, Inc., priority 2019, published 2024)
